Results from patent US8993526B2, “Method for counteracting the perception of sweat malodour by decreasing the function of carboxylic acid-binding olfactory receptors” (ChemCom S.A., priority 2011, dated 2015).

What was measured:
Format in all cases: cell-based
Settings in all cases: tested at 1 mM, 316 μM, 100 μM; hit = luciferase activity >= median + 2 standard deviations
OR56A5 = molecular target: T1, OR56A5 (Homo sapiens, UniProt P0C7T3, R311K/V104M); experiment: CRE-luciferase reporter assay, OR56A5 in HEK293T-RTP1A1/RTP2 cells
T1 construct: expressed in transfected cells; host or cells: HEK293T-RTP1A1/RTP2
T1 sequence (P0C7T3 1-313 V104M/R311K): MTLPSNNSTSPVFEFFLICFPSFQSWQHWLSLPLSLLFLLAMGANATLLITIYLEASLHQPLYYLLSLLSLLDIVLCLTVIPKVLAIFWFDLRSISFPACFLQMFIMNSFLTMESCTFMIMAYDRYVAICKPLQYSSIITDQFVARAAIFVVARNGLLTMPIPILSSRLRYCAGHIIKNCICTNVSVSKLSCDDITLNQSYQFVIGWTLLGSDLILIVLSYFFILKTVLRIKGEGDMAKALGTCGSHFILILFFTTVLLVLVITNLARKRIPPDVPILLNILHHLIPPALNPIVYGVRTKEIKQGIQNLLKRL
Protocol: (§1) Cells were maintained in minimal essential medium (EMEM, Lonza) containing 10% fetal bovine serum (M10). HEK293T-RTP1A1/RTP2 cells were generated by transfecting HEK293T with an expression vector containing the sequences of the chaperone proteins RTP1A1 and RTP2 and a resistance gene to puromycin, using Lipofectamine 2000. A recombinant cell population was selected by adding 10 μg/ml of puromycin into the culture medium. Monoclonal populations were further obtained by limit dilution procedure. Briefly, a cell suspension was diluted to contain 1 cell per ml and this dilution was dispatched in poly-D-lysine-coated 96 wells plates (200 μl of dilution per well). After 5 days of culture, the presence and number of cell colonies per well was checked under a phase contrast microscopic. After 5 additional days of culture, wells containing a single colony were harvested and each collected population was amplified independently.
(§2) For screening experiments, stock solutions of odorant molecules were diluted in EMEM disposed in 96-well plates. Plates containing the tested molecules (1 molecule/well) at a concentration of 2 mM, at a concentration of 632 μM and at a concentration of 200 μM were prepared.
(§3) For concentration-response analysis, serial dilutions of the tested molecules were prepared from stock solutions in EMEM plated into 96-well plates.
(§4) For the initial deorphanisation screening and dose-response analysis, a Luciferase-based gene reporter assay (Promega, Leiden, The Nederlands) was used as described in Saito et al. (2004). Briefly, cells were platted on poly-D-lysine-coated 96-well plates (BD Bioscience, Erembodegem-Dorp, Belgium) and transfected with a plasmid containing the CRE-luciferase and a plasmid containing the olfactory receptor. Sixteen hours after transfection, the culture medium was replaced by serum-free EMEM containing the tested ligand at a determined concentration. After four hours of incubation at 37° C. degree, cells were lysed and processed for luminescence measurement according to the manufacturer's protocols. Luminescene emission was recorded on a Spectra Max M5 reader (Molecular Devices, Sunnyvale, Calif.). Results were expressed as percentage of the response induced by 10 μM of the adenylate cyclase activator Forskolin.
(§5) Each molecule was tested at 3 different concentrations (1 mM, 316 μM, 100 μM). The different molecules of the tested libraries were disposed at the same concentration into 96 well plates (1 well/molecule) containing cells expressing the receptor of interest. The activity of the tested molecules was measured using the lucifierase activity as explained above. The median luciferase activity induced by the tested molecules and the associated standard deviation were determined. Putatively active molecules (hits) were defined as molecules inducing a luciferase activity higher or equal to the median+2 standard deviations.
(§6) The hits were validated by concentration-response analysis. Semi-logarithmic serial dilutions of hit molecules, from 1 mM to 316 nM, were tested on the responding ORs using the luciferase assay as described above.

OR51I2 = molecular target: T2, OR51I2 (Homo sapiens, UniProt Q9H344, T134A); experiment: CRE-luciferase reporter assay, OR51I2 in HEK293T-RTP1A1/RTP2 cells
T2 construct: expressed in transfected cells; host or cells: HEK293T-RTP1A1/RTP2
T2 sequence (Q9H344 1-312 T134A): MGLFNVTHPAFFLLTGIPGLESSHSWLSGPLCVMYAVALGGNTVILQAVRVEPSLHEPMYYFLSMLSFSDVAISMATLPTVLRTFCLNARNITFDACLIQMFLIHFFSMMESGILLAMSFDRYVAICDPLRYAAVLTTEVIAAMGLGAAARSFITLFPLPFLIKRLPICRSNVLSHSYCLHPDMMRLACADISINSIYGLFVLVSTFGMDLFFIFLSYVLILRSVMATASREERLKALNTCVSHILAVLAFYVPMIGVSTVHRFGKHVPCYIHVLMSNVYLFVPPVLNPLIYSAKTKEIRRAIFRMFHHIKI
Protocol: as §1, §2, §3, §4, §5, §6

OR52E8 = molecular target: T3, OR52E8 (Homo sapiens, UniProt Q6IFG1); experiment: CRE-luciferase reporter assay, OR52E8 in HEK293T-RTP1A1/RTP2 cells
T3 construct: expressed in transfected cells; host or cells: HEK293T-RTP1A1/RTP2
T3 sequence (Q6IFG1 with tags, fused parts or gaps): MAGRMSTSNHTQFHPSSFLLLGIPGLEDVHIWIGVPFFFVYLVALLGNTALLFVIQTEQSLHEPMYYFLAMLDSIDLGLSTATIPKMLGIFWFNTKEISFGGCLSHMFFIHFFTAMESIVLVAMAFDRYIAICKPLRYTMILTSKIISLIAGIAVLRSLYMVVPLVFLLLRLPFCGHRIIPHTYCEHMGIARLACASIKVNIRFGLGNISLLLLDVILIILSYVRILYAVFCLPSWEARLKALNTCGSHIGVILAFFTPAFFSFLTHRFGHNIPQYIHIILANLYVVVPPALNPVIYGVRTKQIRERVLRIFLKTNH
Protocol: as §1, with “After 5 days of culture, the presence and number of cell colonies per well was checked under a phase contrast microscopic. After 5 additional days of culture, wells containing a single colony were harvested and each collected population was amplified independently.” left out
as §4, with “Briefly, cells were platted on poly-D-lysine-coated 96-well plates (BD Bioscience, Erembodegem-Dorp, Belgium) and transfected with a plasmid containing the CRE-luciferase and a plasmid containing the olfactory receptor.” left out, “Forskolin. […]” for “Forskolin.”

OR52A5 = molecular target: T4, OR52A5 (Homo sapiens, UniProt Q9H2C5); experiment: CRE-luciferase reporter assay, OR52A5 in HEK293T-RTP1A1/RTP2 cells
T4 construct: expressed in transfected cells; host or cells: HEK293T-RTP1A1/RTP2
T4 sequence (Q9H2C5 1-314 limits assumed): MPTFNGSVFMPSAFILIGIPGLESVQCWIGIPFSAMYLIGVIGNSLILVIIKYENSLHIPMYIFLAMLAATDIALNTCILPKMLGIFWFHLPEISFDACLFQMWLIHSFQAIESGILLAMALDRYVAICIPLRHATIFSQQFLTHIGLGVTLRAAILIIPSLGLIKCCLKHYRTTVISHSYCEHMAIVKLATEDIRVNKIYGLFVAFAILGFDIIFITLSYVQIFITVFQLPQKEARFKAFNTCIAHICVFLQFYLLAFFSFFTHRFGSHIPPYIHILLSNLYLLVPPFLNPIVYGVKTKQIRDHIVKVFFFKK
Protocol: as §1, with “After 5 days of culture, the presence and number of cell colonies per well was checked under a phase contrast microscopic. After 5 additional days of culture, wells containing a single colony were harvested and each collected population was amplified independently.” left out
as §4, with “Briefly, cells were platted on poly-D-lysine-coated 96-well plates (BD Bioscience, Erembodegem-Dorp, Belgium) and transfected with a plasmid containing the CRE-luciferase and a plasmid containing the olfactory receptor.” left out, “Forskolin. […]” for “Forskolin.”

OR52E1 = molecular target: T5, OR52E1 (Homo sapiens, UniProt Q8NGJ3, F254L/Y278C); experiment: CRE-luciferase reporter assay, OR52E1 in HEK293T-RTP1A1/RTP2 cells
T5 construct: expressed in transfected cells; host or cells: HEK293T-RTP1A1/RTP2
T5 sequence (Q8NGJ3 whole entry F254L/Y278C): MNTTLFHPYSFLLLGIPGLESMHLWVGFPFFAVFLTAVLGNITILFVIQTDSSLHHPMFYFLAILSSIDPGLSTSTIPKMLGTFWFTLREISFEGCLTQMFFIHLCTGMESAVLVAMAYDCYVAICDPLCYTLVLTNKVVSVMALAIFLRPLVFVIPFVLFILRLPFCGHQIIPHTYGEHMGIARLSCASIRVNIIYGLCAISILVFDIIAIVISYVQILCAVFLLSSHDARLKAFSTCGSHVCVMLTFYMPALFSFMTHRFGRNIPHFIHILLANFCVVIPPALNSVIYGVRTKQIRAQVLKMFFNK
Protocol: as §1, with “independently. For screening experiments, stock solutions of odorant molecules were diluted in EMEM disposed in 96-well plates. Plates containing the tested molecules (1 molecule/well) at a concentration of 2 mM, at a concentration of 632 μM and at a concentration of 200 μM were prepared. For concentration-response analysis, serial dilutions of the tested molecules were prepared from stock solutions in EMEM plated into 96-well plates. […]” for “independently.”

OR52B2 = molecular target: T6, OR52B2 (Homo sapiens, UniProt Q96RD2); experiment: CRE-luciferase reporter assay, OR52B2 in HEK293T-RTP1A1/RTP2 cells
T6 construct: expressed in transfected cells; host or cells: HEK293T-RTP1A1/RTP2
T6 sequence (Q96RD2 1-323): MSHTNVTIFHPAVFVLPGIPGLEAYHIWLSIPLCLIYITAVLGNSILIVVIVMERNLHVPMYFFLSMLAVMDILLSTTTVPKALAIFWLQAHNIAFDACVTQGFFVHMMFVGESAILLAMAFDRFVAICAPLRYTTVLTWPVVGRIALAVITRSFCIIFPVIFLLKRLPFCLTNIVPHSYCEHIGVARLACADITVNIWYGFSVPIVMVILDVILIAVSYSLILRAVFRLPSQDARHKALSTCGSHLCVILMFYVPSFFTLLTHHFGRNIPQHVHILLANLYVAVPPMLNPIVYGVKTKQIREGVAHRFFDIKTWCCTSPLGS
Protocol: as §1, §2, §3, §4, §5, §6

OR52L1 = molecular target: T7, OR52L1 (Homo sapiens, UniProt Q8NGH7, R140C/S130L); experiment: CRE-luciferase reporter assay, OR52L1 in HEK293T-RTP1A1/RTP2 cells
T7 construct: expressed in transfected cells; host or cells: HEK293T-RTP1A1/RTP2
T7 sequence (Q8NGH7 1-329 S130L/R140C): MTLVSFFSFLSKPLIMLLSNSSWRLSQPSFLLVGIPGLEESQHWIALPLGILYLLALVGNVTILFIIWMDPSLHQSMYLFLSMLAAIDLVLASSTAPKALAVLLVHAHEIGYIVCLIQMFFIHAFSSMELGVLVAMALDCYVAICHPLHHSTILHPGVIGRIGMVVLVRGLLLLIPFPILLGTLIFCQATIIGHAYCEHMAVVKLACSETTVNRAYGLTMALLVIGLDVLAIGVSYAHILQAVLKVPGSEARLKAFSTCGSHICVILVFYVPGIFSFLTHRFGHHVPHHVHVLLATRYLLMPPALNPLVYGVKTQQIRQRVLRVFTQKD
Protocol: as §1, with “independently. For screening experiments, stock solutions of odorant molecules were diluted in EMEM disposed in 96-well plates. Plates containing the tested molecules (1 molecule/well) at a concentration of 2 mM, at a concentration of 632 μM and at a concentration of 200 μM were prepared. For concentration-response analysis, serial dilutions of the tested molecules were prepared from stock solutions in EMEM plated into 96-well plates. […]” for “independently.”

activation of OR56A5 (hit in luciferase assay) (OR56A5)	activation of OR51I2 (hit in luciferase assay) (OR51I2)	Compound	activation of OR52B2 (hit in luciferase assay) (OR52B2)	also measured
–	activation	CCCC(=O)O [butanoic acid]	–	activation of OR52E1 (hit in luciferase assay) (OR52E1): activation
activation	–	CCCCCCCCCC(=O)O [decanoic acid]	activation	–
activation	–	CCCCCCC(=O)O [heptanoic acid]	activation	–
–	activation	CC(C)CC(=O)O [isovaleric acid]	–	–
–	activation	CCCCC(=O)O [pentanoic acid]	–	activation of OR52L1 (hit in luciferase assay) (OR52L1): activation
activation	–	CCCCCCCCCCC(=O)O [undecanoic acid]	activation	–

More lines, now with the values behind:

Compound	activation of OR56A5 (hit in luciferase assay) (OR56A5)	activation of OR51I2 (hit in luciferase assay) (OR51I2)	activation of OR52B2 (hit in luciferase assay) (OR52B2)	also measured
CCCCCC(C)C(=O)O (stereo not shown) [2-methylheptanoic acid]	activation	–	–	–
CCCCC(C)C(=O)O (stereo not shown) [2-methylhexanoic acid]	–	activation	–	–
CCCC(C)(O)CC(=O)O (stereo not shown) [3-hydroxy-3-methylhexanoic acid]	–	–	–	activation of OR52E8 (hit in luciferase assay) (OR52E8): activation
CCCC(C)CC(=O)O (stereo not shown) [3-methylhexanoic acid]	–	activation	–	–
CCCCC(CC)CCC(=O)O (stereo not shown) [4-ethyloctanoic acid]	–	–	–	activation of OR52A5 (hit in luciferase assay) (OR52A5): activation
CCC/C(C)=C/C(=O)O [(E)-3-methyl-2-hexanoic acid]	–	activation	–	–
O=C(O)c1ccccc1 [benzoic acid]	–	activation	–	–
CCCCCC(=O)O [hexanoic acid]	activation	activation	activation	–
CCCCCCCCC(=O)O [nonanoic acid]	activation	–	activation	–
CCCCCCCC(=O)O [octanoic acid]	activation	–	activation	–
